Laboratory results from the OligoGym collection.
“And” between values parts separate entries of the source, which are not always exact repeats. Identical values can stand only once. HELM strings list units from the 5' end as sugar, base in round brackets, then linkage (d deoxyribose, r ribose, m 2'-O-methyl, p phosphodiester). Strings are as the collection lists them, not checked against the first reports. ss, as = sense and antisense strand; [lna] = locked nucleic acid (LNA); [una] = unlocked nucleic acid; [hna] = hexitol nucleic acid; [s4r] = 4'-thioribose; [fl2r] = 2'-fluoro

settings: siRNA
Further: test system not given here.

Substance	target mRNA knockdown
RNA1{r(A)p.r(G)p.r(A)p.r(G)p.r(A)p.r(G)p.r(G)p.r(U)p.r(G)p.r(G)p.r(A)p.r(G)p.r(G)p.m(U)p.r(A)p.r(U)p.r(C)p.r(U)p.r(C)p.r(T)p.r(T)}|RNA2{r(G)p.r(A)p.r(G)p.r(A)p.m(U)p.r(A)p.r(C)p.r(C)p.r(U)p.r(C)p.r(C)p.r(A)p.r(C)p.r(C)p.r(U)p.r(C)p.r(U)p.r(C)p.r(U)p.r(T)p.r(T)}$$$RNA1{StrandType:ss}|RNA2{StrandType:as}$	90%
RNA1{r(G)p.r(G)p.r(A)p.r(A)p.r(G)p.r(A)p.r(A)p.r(G)p.r(A)p.r(U)p.r(A)p.r(G)p.r(A)p.r(G)p.r(C)p.r(A)p.r(U)p.r(C)p.r(C)p.r(T)p.r(T)}|RNA2{r(G)p.r(G)p.r(A)p.r(U)p.r(G)p.r(C)p.r(U)p.r(C)p.[fl2r](U)p.r(A)p.r(U)p.r(C)p.r(U)p.r(U)p.r(C)p.r(U)p.r(U)p.r(C)p.r(C)p.r(T)p.r(T)}$$$RNA1{StrandType:ss}|RNA2{StrandType:as}$	37%
RNA1{m(U)p.r(A)p.r(G)p.r(C)p.m(C)p.r(A)p.r(G)p.r(A)p.r(G)p.r(C)p.m(C)p.r(A)p.r(A)p.r(A)p.r(G)p.r(A)p.r(A)p.r(G)p.r(C)p.r(T)p.r(T)}|RNA2{r(G)p.r(C)p.r(U)p.r(U)p.r(C)p.r(U)p.r(U)p.r(U)p.r(G)p.m(G)p.r(C)p.r(U)p.r(C)p.r(U)p.r(G)p.m(G)p.m(C)p.m(U)p.r(A)p.r(T)p.r(T)}$$$RNA1{StrandType:ss}|RNA2{StrandType:as}$	85%
RNA1{r(A)p.r(A)p.m(U)p.r(A)p.r(A)p.r(G)p.m(C)p.r(A)p.r(G)p.r(C)p.r(U)p.r(C)p.r(G)p.r(C)p.r(G)p.r(C)p.r(U)p.r(C)p.r(C)p.r(T)p.r(T)}|RNA2{r(G)p.r(G)p.r(A)p.r(G)p.r(C)p.r(G)p.r(C)p.r(G)p.r(A)p.r(G)p.r(C)p.r(U)p.r(G)p.r(C)p.r(U)p.m(U)p.r(A)p.r(U)p.r(U)p.r(T)p.r(T)}$$$RNA1{StrandType:ss}|RNA2{StrandType:as}$	54%
RNA1{m(C)p.r(A)p.r(G)p.m(C)p.r(A)p.r(A)p.r(A)p.m(C)p.m(C)p.r(A)p.m(C)p.r(G)p.r(A)p.m(U)p.m(C)p.r(A)p.r(A)p.m(U)p.r(A)p.r(T)p.r(T)}|RNA2{m(U)p.r(A)p.m(U)p.m(U)p.r(G)p.r(A)p.m(U)p.m(C)p.r(G)p.m(U)p.r(G)p.r(G)p.m(U)p.m(U)p.m(U)p.r(G)p.m(C)p.m(U)p.r(G)p.r(T)p.r(T)}$$$RNA1{StrandType:ss}|RNA2{StrandType:as}$	5%
RNA1{[s4r](C)p.[s4r](G)p.r(U)p.r(A)p.r(C)p.r(G)p.r(C)p.r(G)p.r(G)p.r(A)p.r(A)p.r(U)p.r(A)p.r(C)p.r(U)p.r(U)p.r(C)p.r(G)p.r(A)p.r(T)p.r(T)}|RNA2{[s4r](U)p.[s4r](C)p.r(G)p.r(A)p.r(A)p.r(G)p.r(U)p.r(A)p.r(U)p.r(U)p.r(C)p.r(C)p.r(G)p.r(C)p.r(G)p.r(U)p.r(A)p.[s4r](C)p.[s4r](G)p.r(T)p.r(T)}$$$RNA1{StrandType:ss}|RNA2{StrandType:as}$	90.4%
RNA1{r(A)p.r(A)p.r(G)p.r(G)p.r(A)p.r(C)p.r(C)p.m(U)p.r(A)p.r(G)p.r(A)p.r(G)p.r(G)p.r(A)p.r(G)p.r(U)p.r(C)p.r(A)p.r(C)p.r(T)p.r(T)}|RNA2{r(G)p.m(U)p.r(G)p.r(A)p.r(C)p.r(U)p.r(C)p.r(C)p.r(U)p.r(C)p.r(U)p.r(A)p.r(G)p.r(G)p.r(U)p.r(C)p.r(C)p.r(U)p.r(U)p.r(T)p.r(T)}$$$RNA1{StrandType:ss}|RNA2{StrandType:as}$	80%
RNA1{r(A)p.r(C)p.r(A)p.r(U)p.r(A)p.r(G)p.r(A)p.r(G)p.r(G)p.r(A)p.r(A)p.r(G)p.r(A)p.r(C)p.r(G)p.r(C)p.r(G)p.r(G)p.r(A)p.r(T)p.r(T)}|RNA2{r(U)p.r(C)p.r(C)p.r(G)p.r(C)p.r(G)p.r(U)p.r(C)p.r(U)p.r(U)p.r(C)p.r(C)p.r(U)p.r(C)p.[fl2r](U)p.r(A)p.r(U)p.r(G)p.r(U)p.r(T)p.r(T)}$$$RNA1{StrandType:ss}|RNA2{StrandType:as}$	89%
RNA1{r(A)p.m(C)p.m(A)p.r(G)p.r(A)p.r(A)p.r(A)p.r(G)p.m(A)p.r(G)p.r(U)p.r(U)p.r(C)p.r(G)p.r(A)p.r(G)p.r(G)p.r(A)p.r(G)p.r(T)p.r(T)}|RNA2{r(C)p.r(U)p.r(C)p.r(C)p.r(U)p.r(C)p.r(G)p.r(A)p.r(A)p.r(C)p.r(U)p.r(C)p.r(U)p.r(U)p.r(U)p.r(C)p.m(U)p.r(G)p.r(U)p.r(T)p.r(T)}$$$RNA1{StrandType:ss}|RNA2{StrandType:as}$	61%
RNA1{r(A)p.r(G)p.r(A)p.r(G)p.r(A)p.r(G)p.r(G)p.[fl2r](U)p.r(G)p.r(G)p.r(A)p.r(G)p.r(G)p.r(U)p.r(A)p.r(U)p.r(C)p.r(U)p.r(C)p.r(T)p.r(T)}|RNA2{r(G)p.r(A)p.r(G)p.r(A)p.[fl2r](U)p.r(A)p.r(C)p.r(C)p.r(U)p.r(C)p.r(C)p.r(A)p.r(C)p.r(C)p.r(U)p.r(C)p.r(U)p.r(C)p.r(U)p.r(T)p.r(T)}$$$RNA1{StrandType:ss}|RNA2{StrandType:as}$	88%
RNA1{[fl2r](G)p.m(A)p.[fl2r](C)p.m(G)p.[fl2r](U)p.m(A)p.[fl2r](A)p.m(A)p.[fl2r](C)p.m(G)p.[fl2r](G)p.m(C)p.[fl2r](C)p.m(A)p.[fl2r](C)p.m(A)p.[fl2r](A)p.m(G)p.[fl2r](U)p.m(U)p.[fl2r](C)}|RNA2{r(A)p.r(C)p.r(U)p.r(U)p.r(G)p.r(U)p.r(G)p.r(G)p.r(C)p.r(C)p.r(G)p.r(U)p.r(U)p.r(U)p.r(A)p.r(C)p.r(G)p.r(U)p.[lna](C)p.[lna](G)p.r(C)}$$$RNA1{StrandType:ss}|RNA2{StrandType:as}$	84.4%
RNA1{m(A)p.r(G)p.m(U)p.r(U)p.m(A)p.r(A)p.m(C)p.r(C)p.m(C)p.r(G)p.m(G)p.r(G)p.m(A)p.r(C)p.m(U)p.r(U)p.m(G)p.r(G)p.m(A)p.r(T)p.r(T)}|RNA2{r(U)p.r(C)p.r(C)p.r(A)p.r(A)p.m(G)p.r(U)p.r(C)p.r(C)p.r(C)p.m(G)p.m(G)p.m(G)p.r(U)p.r(U)p.r(A)p.r(A)p.r(C)p.r(U)p.r(T)p.r(T)}$$$RNA1{StrandType:ss}|RNA2{StrandType:as}$	45%
RNA1{r(A)p.r(U)p.r(C)p.r(U)p.r(G)p.r(A)p.r(A)p.r(G)p.r(A)p.r(A)p.r(G)p.r(G)p.r(A)p.r(G)p.r(A)p.r(A)p.r(A)p.r(A)p.r(A)p.d(T)p.d(T)}|RNA2{[lna](T)p.r(U)p.r(U)p.r(U)p.r(U)p.r(C)p.r(U)p.r(C)p.r(C)p.r(U)p.r(U)p.r(C)p.r(U)p.r(U)p.r(C)p.r(A)p.r(G)p.r(A)p.r(U)p.[lna](T)p.[lna](T)}$$$RNA1{StrandType:ss}|RNA2{StrandType:as}$	45%
RNA1{m(G)p.r(A)p.m(U)p.r(A)p.m(C)p.r(U)p.m(U)p.r(C)p.m(U)p.r(G)p.m(G)p.r(U)p.m(U)p.r(C)p.m(C)p.r(C)p.m(U)p.r(C)p.m(C)p.r(T)p.r(T)}|RNA2{r(G)p.r(G)p.r(A)p.r(G)p.r(G)p.r(G)p.r(A)p.r(A)p.r(C)p.r(C)p.r(A)p.r(G)p.r(A)p.r(A)p.r(G)p.r(U)p.r(A)p.r(U)p.r(C)p.r(T)p.r(T)}$$$RNA1{StrandType:ss}|RNA2{StrandType:as}$	45%
RNA1{r(A)p.r(G)p.m(A)p.r(G)p.r(A)p.r(G)p.r(G)p.m(U)p.r(G)p.r(G)p.r(A)p.r(G)p.r(G)p.m(U)p.r(A)p.r(U)p.r(C)p.r(U)p.r(C)p.r(T)p.r(T)}|RNA2{r(G)p.r(A)p.r(G)p.r(A)p.m(U)p.r(A)p.r(C)p.r(C)p.r(U)p.r(C)p.m(C)p.r(A)p.r(C)p.r(C)p.r(U)p.m(C)p.r(U)p.r(C)p.r(U)p.r(T)p.r(T)}$$$RNA1{StrandType:ss}|RNA2{StrandType:as}$	87%
RNA1{[hna](G)p.[hna](A)p.[hna](C)p.r(G)p.r(U)p.r(A)p.r(A)p.r(A)p.r(C)p.r(G)p.r(G)p.r(C)p.r(C)p.r(A)p.r(C)p.r(A)p.r(A)p.[hna](G)p.[hna](U)p.r(U)p.d(T)}|RNA2{r(A)p.r(C)p.r(U)p.r(U)p.r(G)p.r(U)p.r(G)p.r(G)p.r(C)p.r(C)p.r(G)p.r(U)p.r(U)p.r(U)p.r(A)p.r(C)p.r(G)p.r(U)p.[lna](C)p.[lna](G)p.r(C)}$$$RNA1{StrandType:ss}|RNA2{StrandType:as}$	84.7%
RNA1{m(C)p.r(U)p.m(C)p.r(C)p.m(C)p.r(C)p.m(A)p.r(G)p.m(U)p.r(C)p.m(U)p.r(C)p.m(U)p.r(C)p.m(U)p.r(U)p.m(A)p.r(A)p.m(A)p.r(T)p.r(T)}|RNA2{r(U)p.r(U)p.r(U)p.r(A)p.r(A)p.r(G)p.r(A)p.r(G)p.r(A)p.r(G)p.r(A)p.r(C)p.r(U)p.r(G)p.r(G)p.r(G)p.r(G)p.r(A)p.r(G)p.r(T)p.r(T)}$$$RNA1{StrandType:ss}|RNA2{StrandType:as}$	51%
RNA1{r(C)p.m(C)p.r(C)p.m(C)p.r(A)p.m(G)p.r(G)p.m(U)p.r(A)p.m(A)p.r(C)p.m(G)p.r(A)p.r(U)p.r(U)p.m(U)p.r(U)p.r(C)p.r(U)p.r(T)p.r(T)}|RNA2{r(A)p.r(G)p.r(A)p.r(A)p.r(A)p.r(A)p.r(U)p.m(C)p.r(G)p.r(U)p.r(U)p.r(A)p.m(C)p.m(C)p.r(U)p.r(G)p.r(G)p.r(G)p.r(G)p.r(T)p.r(T)}$$$RNA1{StrandType:ss}|RNA2{StrandType:as}$	69%
RNA1{r(C)p.r(U)p.r(U)p.r(A)p.r(C)p.r(G)p.r(C)p.r(U)p.r(G)p.r(A)p.r(G)p.r(U)p.r(A)p.r(C)p.r(U)p.r(U)p.r(C)p.r(G)p.r(A)p.r(T)p.r(T)}|RNA2{r(T)p.r(C)p.r(G)p.r(A)p.r(A)p.r(G)p.r(U)p.r(A)p.r(C)p.r(U)p.r(C)p.[lna](A)p.r(G)p.r(C)p.r(G)p.r(U)p.r(A)p.r(A)p.r(G)p.[lna](T)p.[lna](T)}$$$RNA1{StrandType:ss}|RNA2{StrandType:as}$	70% and 94%
RNA1{r(G)p.r(U)p.r(A)p.r(U)p.r(G)p.r(A)p.r(C)p.r(C)p.r(G)p.r(A)p.r(C)p.r(U)p.r(A)p.r(C)p.r(G)p.r(C)p.r(G)p.r(U)p.r(A)p.r(T)p.r(T)}|RNA2{r(U)p.r(U)p.r(C)p.r(A)p.r(G)p.r(U)p.r(G)p.r(U)p.r(G)p.r(A)p.r(U)p.r(G)p.r(A)p.[una](C)p.r(A)p.r(C)p.r(U)p.r(U)p.r(G)p.r(T)p.r(T)}$$$RNA1{StrandType:ss}|RNA2{StrandType:as}$	64%
